Reference: patent US6046218A, “Pyridine derivative and medicament containing the same as an effective ingredient” (SS Pharmaceutical Co., Ltd., priority 1996, dated 2000)
Counter-ions that a name gives are not always drawn.

Key:
IL-5 production = assay: Test 3: inhibition of IL-5 production in human PBMC stimulated with ConA; format: cell-based; settings: 10^-6 M, 10 μg/ml ConA, 48 hours, read-out: Inhibition rate of IL-5 production
Method in brief: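 Human PBMC from a normal volunteer, 1×10^6 cells/ml in AIM-V, stimulated with 10 μg/ml ConA alongside compound and incubated 48 h at 37 °C, 5% CO2. Supernatant IL-5 quantified by EIA; inhibition rate calculated from a formula.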

IgE production = assay: Test 4: inhibition of IgE production by spleen cells of orally treated sensitized mice; format: in vivo, Balb/c mouse; settings: Mus musculus, po, 100 mg/kg orally once a day, Day 1 to Day 10, DNP-BSA 5 μg/ml, 24 hours, read-out: Inhibition rate of IgE production
Method: (§1) Test 4: Test on the inhibition of IgE production
(§2) To a Balb/c mouse, the DNP-labeled ascaris antigen (5 μg) and Alum (1 mg) were intraperitoneally administered on Day 1 and Day 6 to sensitize the mouse with the antibody. From Day 1 to Day 10, a medicament was orally administered at a dose of 100 mg/kg once a day. On Day 11, the mouse was subjected to splenectomy and the spleen so obtained was untangled into its cells. To 5×10^7 cells/ml of the spleen cells so obtained, DNP-BSA (5 μg/ml) was added, followed by incubation at 37° C. for 24 hours. After incubation, 100 μl of the supernatant were collected and subjected to the measurement an IgE measuring kit (Yamasa Co., Ltd.). In order to determine IgG1, IgG2a and IgM, the absorbance of the incubated supernatant was measured by the EIA method and provided for comparison. The inhibition rate of IgE production was calculated according to the below-described formula. Inhibition rates of the IgG1, IgG2a and IgM production were similarly calculated, respectively. [formula]

IgM production = assay: Test 4 (comparison): inhibition of IgM production; format: in vivo, Balb/c mouse; settings: 100 mg/kg orally once a day; for inhibition at 100 mg/kg: Mus musculus, po, Day 1 to Day 10, spleen cells, DNP-BSA 5 μg/ml, 24 hours, read-out: Inhibition rate of IgM production
Method: as §1, §2

IgG1 production = assay: Test 4 (comparison): inhibition of IgG1 production; format: in vivo, Balb/c mouse; settings: 100 mg/kg orally once a day; for inhibition at 100 mg/kg: Mus musculus, po, Day 1 to Day 10, spleen cells, DNP-BSA 5 μg/ml, 24 hours, read-out: Inhibition rate of IgG1 production
Method: as §1, §2

IgG2a production = assay: Test 4 (comparison): inhibition of IgG2a production; format: in vivo, Balb/c mouse; settings: 100 mg/kg orally once a day; for inhibition at 100 mg/kg: Mus musculus, po, Day 1 to Day 10, spleen cells, DNP-BSA 5 μg/ml, 24 hours, read-out: Inhibition rate of IgG2a production
Method: as §1, §2

IL-4 production [1] = assay: Test 1: inhibition of IL-4 production in human T-cell strain ATL-16T(-) stimulated with PMA (R&D Systems EIA); format: cell-based; settings: ATL-16T(-) 1×10^6 cells/0.5 ml/well, 20 nM PMA, 48 hours, read-out: Inhibition rate of IL-4 production; for inhibition at 10 µM: 10^-5 M; for inhibition at 1 µM: 10^-6 M; for inhibition at 0.1 µM: 10^-7 M; for inhibition at 0.01 µM: 10^-8 M
Method: Test 1: Test on the inhibition of IL-4 production
(§3) Into individual wells of a 48-well microplate, the human T-cell strain ATL-16T(-) was poured at a concentration of 1×10^6 cells/0.5 ml/well (n=3), followed by the addition of a stimulator (20 nM of PMA) and a medicament at the same time. The resulting mixture was incubated in 5% CO2 at 37° C. for 48 hours. After incubation, 100 μl of the supernatant were collected and subjected to measurement by a human IL-4 EIA kit (R&D SYSTEMS, INC.). The inhibition rate was calculated according to the following formula. [formula]

IL-4 production [2] = assay: Test 2: inhibition of IL-4 production in human T-cell strain ATL-16T(-) stimulated with PMA (Bio Source EIA); format: cell-based; settings: ATL-16T(-) 5×10^5 cells/0.5 ml/well, 20 nM PMA, 48 hours, read-out: Inhibition rate of IL-4 production; for inhibition at 10 µM: 10^-5 M; for inhibition at 1 µM: 10^-6 M; for inhibition at 0.1 µM: 10^-7 M; for inhibition at 0.01 µM: 10^-8 M
Method: Test 2: Test on the inhibition of IL-4 production
as §3, with “5×10^5” for “1×10^6”, “50” for “100”, “(BIO SOURCE,” for “(R&D SYSTEMS,”

Row | SMILES | inhibition at 1 µM (IL-5 production) [%] | inhibition at 100 mg/kg (IgE production) [%] | inhibition at 100 mg/kg (IgM production) [%] | inhibition at 100 mg/kg (IgG1 production) [%] | inhibition at 100 mg/kg (IgG2a production) [%] | inhibition at 10 µM (IL-4 production [1]) [%] | inhibition at 1 µM (IL-4 production [1]) [%] | inhibition at 0.1 µM (IL-4 production [1]) [%] | inhibition at 0.01 µM (IL-4 production [1]) [%] | inhibition at 10 µM (IL-4 production [2]) [%] | inhibition at 1 µM (IL-4 production [2]) [%] | inhibition at 0.1 µM (IL-4 production [2]) [%] | inhibition at 0.01 µM (IL-4 production [2]) [%] | effects on the production of IgM (IgM production; in words) | effects on the production of IgG1 (IgG1 production; in words) | effects on the production of IgG2a (IgG2a production; in words)
1 | COC(=O)c1ccc(COc2cc(/C=C/C(=O)c3ccccc3OC)ncc2OC)cc1 [Ex. 99] | 80.3 | 34.8 | 8.5 | 6.1 | 2.7 |  |  |  |  |  |  |  |  |  |  | 
2 | CCCCCC(=O)/C=C/c1cc(OCCCCCC(=O)OC)c(OC)cn1 [Ex. 15, Methyl 6-[5-methoxy-2-(3-oxo-1-octenyl)-4-pyridyloxy]hexanoate] | 79.2 | 23.5 | -5.4 | 9.9 | 4.6 | 76.8 | 58.9 | 55.9 | 49.1 |  |  |  |  |  |  | 
3 | CCOC(=O)CCCOc1cc(/C=C/C(=O)c2ccccc2)ncc1OC [Ex. 44, Ethyl 4-[5-methyoxy-2-(3-oxo-3-phenyl-1-propenyl)-4-pyridyloxy]butanoate] | 90.6 | 26.7 | -4.2 | 8 | -2.2 | 89.1 | 86.1 | 56.2 | 46.5 |  |  |  |  |  |  | 
4 | CCOC(=O)CCCCCCCCCCCOc1cc(/C=C/C(=O)c2ccccc2OC)ncc1OC [Ex. 97, Ethyl 12-[5-methoxy-2-(3-(2-methoxyphenyl)-3-oxo-1-propenyl)-4-pyridyloxy]dodecanoate hydrochloride] | 93.9 | 30.5 | 1.9 | 5.6 | -9.5 |  |  |  |  |  |  |  |  |  |  | 
5 | CCOC(=O)CCCOc1cc(/C=C/C(=O)c2cc(OC)ccc2OC)ncc1OC [Ex. 87, Ethyl 4-[5-methoxy-2-(3-(2,5-dimethoxyphenyl)-3-oxo-1-propenyl)-4-pyridyloxy]butanoate hydrochloride] | 90.2 | 30.5 | -0.1 | -3.4 | -8.1 |  |  |  |  | 78.3 | 73.4 | 72.2 | 69.3 |  |  | 
6 | CCOC(=O)CCCCCOc1cc(/C=C/C(=O)c2cc(OC)ccc2OC)ncc1OC [Ex. 88, Ethyl 6-[5-methoxy-2-(3-(2,5-dimethoxyphenyl)-3-oxo-1-propenyl)-4-pyridyloxy]hexanoate hydrochloride] | 61.6 | 22.7 | -4.2 | -6.9 | 8.6 |  |  |  |  | 74.2 | 74.4 | 71.7 | 68 |  |  | 
7 | O=C(/C=C/c1cc(O)c(O)cn1)c1ccccc1 [Ex. 20, 4,5-Dihydroxy-2-(3-oxo-3-phenyl-1-propenyl)pyridine] | 92.8 | 23.7 | -6.2 | 7.4 | 1.3 | 97.9 | 96.4 | 90.6 | 84 |  |  |  |  |  |  | 
8 | CCOC(=O)CCCOc1cc(/C=C/C(=O)c2c(OC)cccc2OC)ncc1OC [Ex. 86, Ethyl 4-[5-methoxy-2-(3-(2,6-dimethoxyphenyl)-3-oxo-1-propenyl)-4-pyridyloxy]butanoate hydrochloride] | 71.9 | 35.9 | -2.7 | -1.1 | 6.2 |  |  |  |  | 94.6 | 80.1 | 77.6 | 73.6 |  |  | 
9 | CCOC(=O)CCCCCOc1cc(/C=C/C(=O)c2ccc(OC)c(OC)c2)ncc1OC [Ex. 90, Ethyl 6-[5-methoxy-2-(3-(3,4-dimethoxyphenyl)-3-oxo-1-propenyl)-4-pyridyloxy]hexanoate hydrochloride] | 75.6 | 21.5 | -10.3 | 2.7 | 7 |  |  |  |  | 25.3 | 26.4 | 28.6 | 43.2 |  |  | 
10 | CCOC(=O)CCCCCOc1cc(/C=C/C(=O)c2ccsc2)ncc1OC [Ex. 100, Ethyl 6-[5-methoxy-2-(3-oxo-3-(3-thienyl)-1-propenyl)-4-pyridyloxy]hexanoate hyd rochloride] | 82.6 | 23.9 | -9 | -4 | -5.1 |  |  |  |  |  |  |  |  |  |  | 
11 | COc1cnc(/C=C/C(=O)C2CCCCC2)cc1OCCCC(=O)O [Ex. 106, 4-[2-(3-Cyclohexyl-3-oxo-1-propenyl)-5-methoxy-4-pyridyloxy]butanoic acid] | 78.7 | 28.8 | -7.3 | -0.8 | 2.1 |  |  |  |  | 75.6 | 31.7 | 9.4 | 8.6 |  |  | 
12 | COc1cnc(/C=C/C(=O)c2ccccc2)cc1OC [Ex. 1, 4,5-dimethoxy-2-(3-oxo-3-phenyl-1-propenyl)pyridine] | 95.3 | 42 | -8 | 1.6 | 4.6 | 97.5 | 87.9 | 80.3 | 59.9 |  |  |  |  |  |  | 
13 | CCOC(=O)CCCCCOc1cc(/C=C/C(=O)c2ccc(OC)cc2OC)ncc1OC [Ex. 92, Ethyl 6-[5-methoxy-2-(3-(2,4-dimethoxyphenyl)-3-oxo-1-propenyl)-4-pyridyloxy]hexanoate hydrochloride] | 96.4 | 61.2 | -8.3 | -4.3 | -6 |  |  |  |  | 54.2 | 48.4 | 31 | 25.3 | No effects were observed | No effects were observed | No effects were observed
14 | COc1cnc(/C=C/C(=O)c2ccccc2)cc1O [Ex. 19, 4-hydroxy-5-methoxy-2-(3-oxo-3-phenyl-1-propenyl)-pyridine] | 94.8 | 30.6 | 1.2 | 8 | 0.9 | 106 | 98.1 | 95.1 | 83.8 |  |  |  |  |  |  | 
